Measured values as given in patent US20220380338A1, “CYCLOALKYL 3-OXOPIPERAZINE CARBOXAMIDES AND CYCLOHETEROALKYL 3-OXOPIPERAZINE CARBOXAMIDES AS NAV1.8 INHIBITORS” (Merck Sharp & Dohme LLC, priority 2021, published 2022).
Blank lines part the entries; values can stand above or below the molecule they belong to.

Biological target: T1, human NaV1.8 (Homo sapiens, UniProt Q9Y5Y9)
T1 construct: expressed in transfected cells
Test: Nav1.8 Qube® Assay (automated 384-well patch-clamp, inhibition of sodium current)
Format: cell-based
Details: human NaV1.8 channels stably expressed in HEK 293 cells, room temperature
Description: Compounds were tested on human NaV1.8 and NaV1.5 channels stably expressed in human embryo kidney (HEK) 293 cells. Sodium current measurements on Qube® were conducted as follows: automated 384-well patch-clamp assays on the Qube® platform (Sophion Biosciences) were used to measure the inhibition of sodium flow through human NaV1.8 and NaV1.5 channels. Whole-cell voltage-clamp recordings were performed in QChips® (Sophion Biosciences) at room temperature. NaV1.8 current measurements on Qube® were obtained as follows: NaV1.8 currents were elicited with a 10 second 1 Hertz (Hz) pulse train from a holding potential of −90 millivolts (mV), delivered to the cells once per minute in the control condition (DMSO only) and after compound addition. The 1 hertz pulse train stimulation consisted of ten test pulses to 10 millivolt (mV) for 20 milliseconds (ms), each of which was followed by a 980 millisecond repolarization to −67 millivolts. At the end of the 10 second pulse train stimulation, a 5 second hyperpolarization step to −100 millivolt (mV) was used to recover NaV1.8 from fast inactivation. The peak currents elicited by the 1st and 10th test pulses were used to determine IC50 values for resting inhibition and inactivated state inhibition. NaV1.5 current measurements on Qube® were obtained as follows: NaV1.5 currents were elicited with a 20 second 3 Hertz pulse train in the control condition (DMSO only) and after compound addition. The pulse train consisted of sixty 20 millisecond test pulses to 0 millivolt from a holding potential of −80 millivolt (mV). The average peak currents elicited by the last 3 test pulses were used to determine IC50 values for NaV1.5 inhibition.
The following buffers were used for the Qube® recordings: External buffer for NaV1.8 Qube® recording: 150 NaCl, 2 CaCl2, 5 KCl, 1 Mg Cl2, 10 HEPES, 12 Dextrose; External buffer for Qube® NaV1.5 recording: 120 N-Methyl-D-Glucamine, 40 NaCl, 1 KCl, 2.7 CaCl2, 5 HEPES, 0.5 MgCl2; and Internal buffer for Qube® recording: 120 CsF, 30 CsCl, 10 EGTA, 5 HEPES, 5 NaF, 2 MgCl2.
For all Qube® experiments offline analysis was used to determine percent inhibition as a function of drug concentration. IC50 values were determined by fitting to the Hill equation.

T1 sequence (Q9Y5Y9 whole entry): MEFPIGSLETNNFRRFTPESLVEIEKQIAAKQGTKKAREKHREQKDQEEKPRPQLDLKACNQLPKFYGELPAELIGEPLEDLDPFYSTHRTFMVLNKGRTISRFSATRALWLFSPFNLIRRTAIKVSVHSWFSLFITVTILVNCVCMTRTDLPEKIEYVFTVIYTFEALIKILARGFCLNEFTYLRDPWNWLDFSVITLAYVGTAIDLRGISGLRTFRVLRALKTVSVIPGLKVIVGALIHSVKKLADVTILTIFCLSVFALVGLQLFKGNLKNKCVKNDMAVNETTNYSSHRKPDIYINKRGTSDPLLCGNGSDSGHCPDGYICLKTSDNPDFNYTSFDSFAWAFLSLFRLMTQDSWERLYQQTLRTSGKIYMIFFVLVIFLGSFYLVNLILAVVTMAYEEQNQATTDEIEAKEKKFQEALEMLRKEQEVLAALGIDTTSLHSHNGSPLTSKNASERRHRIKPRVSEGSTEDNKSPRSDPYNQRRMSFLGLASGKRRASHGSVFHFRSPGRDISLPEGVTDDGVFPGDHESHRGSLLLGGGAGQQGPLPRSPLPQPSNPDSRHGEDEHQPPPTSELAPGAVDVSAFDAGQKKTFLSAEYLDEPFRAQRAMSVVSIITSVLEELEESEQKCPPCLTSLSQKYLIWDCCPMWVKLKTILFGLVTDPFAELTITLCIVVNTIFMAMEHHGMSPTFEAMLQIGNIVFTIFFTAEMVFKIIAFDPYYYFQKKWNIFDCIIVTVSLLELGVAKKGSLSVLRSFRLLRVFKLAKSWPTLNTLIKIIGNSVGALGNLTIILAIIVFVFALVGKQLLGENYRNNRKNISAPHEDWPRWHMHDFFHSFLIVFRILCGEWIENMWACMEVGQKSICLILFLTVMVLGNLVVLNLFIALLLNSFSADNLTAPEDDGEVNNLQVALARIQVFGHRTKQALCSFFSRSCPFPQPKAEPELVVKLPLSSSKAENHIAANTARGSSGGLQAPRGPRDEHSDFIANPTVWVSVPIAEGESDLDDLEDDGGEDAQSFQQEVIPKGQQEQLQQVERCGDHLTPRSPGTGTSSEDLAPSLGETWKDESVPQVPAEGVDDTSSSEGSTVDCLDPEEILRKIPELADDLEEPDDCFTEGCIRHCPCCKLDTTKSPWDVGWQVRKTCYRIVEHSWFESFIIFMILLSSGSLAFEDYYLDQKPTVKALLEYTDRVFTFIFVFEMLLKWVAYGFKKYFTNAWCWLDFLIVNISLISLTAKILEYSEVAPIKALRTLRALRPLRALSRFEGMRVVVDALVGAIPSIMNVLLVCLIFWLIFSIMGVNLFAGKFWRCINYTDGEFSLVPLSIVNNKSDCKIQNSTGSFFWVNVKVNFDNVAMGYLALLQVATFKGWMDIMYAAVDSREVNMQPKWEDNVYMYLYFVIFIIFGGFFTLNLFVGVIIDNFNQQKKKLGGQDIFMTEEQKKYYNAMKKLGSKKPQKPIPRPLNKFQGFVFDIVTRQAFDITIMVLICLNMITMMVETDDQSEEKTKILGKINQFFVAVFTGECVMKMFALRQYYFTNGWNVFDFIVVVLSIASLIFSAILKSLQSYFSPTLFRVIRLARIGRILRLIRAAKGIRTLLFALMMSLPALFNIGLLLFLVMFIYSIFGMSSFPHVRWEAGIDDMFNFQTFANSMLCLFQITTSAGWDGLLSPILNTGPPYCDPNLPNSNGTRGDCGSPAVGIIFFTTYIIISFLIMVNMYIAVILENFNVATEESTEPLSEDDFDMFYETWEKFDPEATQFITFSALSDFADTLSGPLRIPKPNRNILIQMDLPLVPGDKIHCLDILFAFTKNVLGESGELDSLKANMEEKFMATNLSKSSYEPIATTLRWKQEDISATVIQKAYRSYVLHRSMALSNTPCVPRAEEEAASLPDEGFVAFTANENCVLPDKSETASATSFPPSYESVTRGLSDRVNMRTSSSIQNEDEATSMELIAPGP

SMILES: C[C@@H]1C(=O)NCCN1C(=O)NC(c1ccc(F)c(F)c1)[C@H]1CC[C@H](C(F)(F)F)CC1 (single isomer, unassigned) [Example 8B, (2R)-N-((S or R)-(3,4-difluoro-phenyl)(trans-4-(trifluoromethyl)cyclo-hexyl)methyl)-2-methyl-3-oxo-piperazine-1-carboxamide]
IC50: 13.2 nM

SMILES: C[C@@H]1C(=O)NCCN1C(=O)NC(c1ccc(Cl)c(C(F)F)c1)C1CCC(C(F)(F)F)CC1 (single isomer, unassigned) [Example 37B, (2R)-N-((R or S)-(4-chloro-3-(difluoro-methyl)phenyl)(trans-4-(trifluoromethyl)cyclohexyl)methyl)-2-methyl-3-oxopiperazine-1-carboxamide]
IC50: 145 nM

SMILES: C[C@@H]1C(=O)NCCN1C(=O)NC(c1ccc(F)c(Cl)c1)C1CC(OCC(F)(F)F)C1 (single isomer, unassigned) [Example 44B, (2R)—N—((S or R)-(3-chloro-4-fluorophenyl)(cis-3-(2,2,2-trifluoroethoxy)cyclobutyl)methyl)-2-methyl-3-oxopiperazine-1-carboxamide]
IC50: 335 nM

SMILES: C[C@@H]1C(=O)NCCN1C(=O)NC(c1ccc(C(F)(F)F)nc1)C1CC(C)(C)C1 (single isomer, unassigned) [Example 33B, (2R)-N-((S or R)-(3,3-dimethylcyclobutyl)(6-(trifluoromethyl)pyridin-3-yl)methyl)-2-methyl-3-oxopiperazine-1-carboxamide]
IC50: 3590 nM

SMILES: C[C@@H]1C(=O)NCCN1C(=O)NC(c1ccc(Cl)c(C(F)(F)F)n1)C1CCC(F)(F)CC1 (single isomer, unassigned) [Example 46A, (2R)-N-((R or S)-(5-chloro-6-(trifluoro-methyl)pyridin-2-yl)(4,4-difluoro-cyclohexyl)methyl)-2-methyl-3-oxo-piperazine-1-carboxamide]
IC50: 343 nM

More lines, now with the values ahead:

IC50: 2.9 nM
SMILES: C[C@@H]1C(=O)NCCN1C(=O)NC(c1ccc(F)c(Cl)c1F)C1CC2(C1)CC2(F)F (single isomer, unassigned) [Example 22A, (2R)-N-((R or S)-(3-chloro-2,4-difluoro-phenyl)(trans or cis-1,1-difluoro-spiro[2,3]-hexan-5-yl)methyl)-2-methyl-3-oxopiperazine-1-carboxamide]

IC50: 3.03 nM
SMILES: C[C@@H]1C(=O)NCCN1C(=O)NC(c1ccc(F)c(C(F)(F)F)c1)[C@H]1C[C@H](C(F)(F)F)C1 (single isomer, unassigned) [Example 51B, (2R)-N-((S or R)-(4-fluoro-3-(trifluoro-methyl)phenyl)(trans-3-(trifluoro-methyl)-cyclobutyl)methyl)-2-methyl-3-oxopiperazine-1-carboxamide]

IC50: 0.7 nM
SMILES: [2H][C@@]1(CF)C(=O)NCCN1C(=O)N[C@H](c1ccc(F)c(Cl)c1F)[C@H]1C[C@H](C(F)(F)F)C1 [Example 61, (S)—N—((S)-(3-chloro-2,4-difluorophenyl)((trans)-3-(trifluoromethyl)cyclobutyl)methyl)-2-(fluoromethyl)-3-oxopiperazine-2-d-1-carboxamide]

IC50: 1.8 nM
SMILES: O=C1NCCN(C(=O)N[C@H](c2ccc(F)c(Cl)c2F)[C@H]2C[C@H](C(F)(F)F)C2)C1C(F)(F)F (single isomer, unassigned) [Example 63A, (R or S)—N—((S)-(3-chloro-2,4-difluorophenyl)((trans)-3-(trifluoromethyl)cyclobutyl)methyl)-3-oxo-2-(trifluoromethyl)piperazine-1-carboxamide]

IC50: 870 nM
SMILES: C[C@@H]1C(=O)NCCN1C(=O)NC(c1ccc(F)c(Cl)c1F)[C@@H]1C[C@@H]2[C@H](C1)C2(F)F (single isomer, unassigned) [Example 11A, (R)-N-((R or S)-(3-chloro-2,4-difluoro-phenyl)((1R,3s,5S)-6,6-difluoro-bicyclo[3.1.0]hexan-3-yl)methyl)-2-methyl-3-oxo-piperazine-1-carboxamide]
